In the NIST ThermoML archive (doi:10.1021/je400551d):
“And” between values parts separate entries of the source, which are not always exact repeats. Identical values can stand only once.

Conditions: Liquid, Manometric method

COC(N)=O [carbamic acid, methyl ester]
Conditions | vapor or sublimation pressure [kPa]
341.45 K | 1.31
350.9 K | 1.91
356.06 K | 2.5
360.75 K | 3.55
364.43 K | 4.19
367 K | 4.48
371.7 K | 5.42
373.85 K | 6.23
377.23 K | 7.14
384.9 K | 9.83
387.17 K | 10.96
390.5 K | 12.39
393.75 K | 13.99

OCCO [1,2-ethanediol]
Conditions | vapor or sublimation pressure [kPa]
336.45 K | 0.2527
345 K | 0.4838
355.15 K | 0.9002
369.25 K | 1.69
374.45 K | 2.13
378.95 K | 2.66
384.45 K | 3.57
388.1 K | 4.4
391.45 K | 5.33
394.56 K | 6.01
397.25 K | 7.14
404.05 K | 9.2
408.25 K | 11.34

COC(=O)Nc1ccccc1 [methyl N-phenylcarbamate]
Conditions | vapor or sublimation pressure
372.5 K | 0.2093 kPa
374.46 K | 0.2248 kPa
376.9 K | 0.254 kPa
379.05 K | 0.308 kPa
380.65 K | 0.3343 kPa
383.31 K | 0.3891 kPa
385.85 K | 0.4487 kPa
387.85 K | 0.4996 kPa
390.35 K | 0.5609 kPa
391.76 K | 0.5914 kPa
394.05 K | 0.651 kPa
395.8 K | 0.719 kPa
397.05 K | 0.7885 kPa and 0.7897 kPa
399.63 K | 0.9364 kPa
399.83 K | 0.9418 kPa
402.15 K | 1.06 kPa
409.85 K | 1.29 kPa
412.9 K | 1.54 kPa
415.9 K | 1.97 kPa
418.45 K | 2.13 kPa

O [water]
Conditions | vapor or sublimation pressure [kPa]
280.2 K | 1.29
282.23 K | 1.34
287.9 K | 1.82
292.36 K | 2.13
296.13 K | 2.78
300.7 K | 3.47
304.8 K | 4.54
306.67 K | 4.82
309.65 K | 5.9
312.07 K | 6.75
314.95 K | 7.78
316.65 K | 8.45
317.9 K | 9.45
320.04 K | 10.62
322.75 K | 11.78

CCCCCCCCCC [decane]
Conditions | vapor or sublimation pressure [kPa]
299.25 K | 0.1732
306.95 K | 0.3091
309.15 K | 0.4116
316.26 K | 0.6545
326.1 K | 1.04
340.05 K | 1.95
347.9 K | 2.97
353.32 K | 3.8
358.67 K | 4.82
362.85 K | 5.92
365.13 K | 6.96
370.4 K | 8.23
377.13 K | 10.48
379.93 K | 12
382.83 K | 13.25
